We go through two compounds from publication PMC2665256 (Biochemical and biophysical research communications, 2009).

The target of this experiment is acyl-coenzyme A:cholesterol acyltransferase (ACAT). It counts as biochemical, Mus musculus.

As for `CCCCCCCCCC[Si](C)(C)CCC(=O)NC(Cc1ccc(C)cc1)c1ccccc1` (centres unmarked) [58-035], half-maximal inhibition (IC50) was put at 0.4 ± 0.2 µM.

In turn, `Cc1ccc(Cn2nc(C(=O)N[C@@H]3C(C)(C)[C@@H]4CC[C@@]3(C)C4)cc2-c2ccc(Cl)c(C)c2)cc1` [SR144528] showed a 50% inhibitory concentration (IC50) of 3.6 ± 1.1 µM.

The term IC50 denotes the concentration that inhibits the measured activity by half. Low values mean inhibition by little substance, high ones a need for much substance.
